Measured values: US12416101B2, “Genetically-encoded macrocyclic peptide libraries bearing a pharmacophore” (THE GOVERNORS OF THE UNIVERSITY OF ALBERTA, priority 2018, dated 2025)
Residues, ends and D or L forms follow the SMILES beside them.

How the values were obtained:
Solubility in water = format: physicochemical
phage = experiment: Toxicity of hydrazines to phage, plaque forming assay; set-up: species or system bacteriophage
Procedure: In the reaction between phage diketone and hydrazine, some hydrazine derivatives cause toxicity to phage, leading to elimination of >99.999% of infective phage particles in less than 5 minutes (as determined by plaque forming assay). For example, treating phage with 2 mM phenyl hydrazine for 2 minutes decreased the number of infective particles from 10^5 to zero. The source and mechanism of toxicity was not obvious and was difficult to systematize: it depended on the concentration of hydrazine and its nature, as well as some sporadic factors (preparation of solution). Toxicity dependence on concentration of hydrazine was not linear. In many cases, hydrazine was lethal to phage eliminating all infective particles before the reaction was completed. […] Optimal location conditions between phage-diketone and hydrazine derivatives are in the presence of 1-2 mM metal chelator such as EDTA.

| solubility in water (Solubility in water) | SMILES | decrease in the number of infective particles (phage; 2 to 20 mM phenyl hydrazine in the presence of 1 to 2 mM EDTA, several hours) | number of infective particles after treatment (phage; phage treated with 2 mM phenyl hydrazine for 2 minutes, starting number 10^5, no chelator) |
| --- | --- | --- | --- |
| high | CC(C)[C@H](NC(=O)[C@H](CS)NC(=O)[C@H](CCC(N)=O)NC(=O)[C@@H](N)CO)C(=O)N[C@@H](CCCNC(=N)N)C(=O)N[C@@H](CO)C(=O)N[C@@H](CS)C(=O)O [SQCVRSC] (H-SQCVRSC-OH; N-terminus and C-terminus assumed) |  |  |
|  | NNc1ccccc1 [phenyl hydrazine] | did not show any significant decrease | zero |
